Data on 9 compounds can be found in US20250074891A1 (Anaxis Pharma Pty Ltd., priority 2021, published 2025).

Where two headings read alike, the source gives them in different places. A value given as a limit tells only on which side of the number the result lay.

The subject of one test is U937 cells. Description: Counter screen: cell viability without TSQ cocktail (off-target effect). Set-up: species or system human. The procedure: Counter screen: In parallel, all compounds were tested for their ability to affect cell viability. The same U937 cells were treated with compound in DMSO without the TSQ cocktail. This counter screen enabled evaluation of off-target effects. In this case, cell viability was measured by CelltiterGlo.
In general terms: A counterscreen serves to expose hits that act by an unwanted route or on another target.

The next test has as its target MLKL (full length) (Homo sapiens (Human), UniProt Q8NB16). Description: KINOMEscan binding assay, MLKL (full length). As to conditions: Table 36. The procedure: Kinase assays. For most assays, kinase-tagged T7 phage strains were grown in parallel in 24-well blocks in an E. coli host derived from the BL21 strain. E. coli were grown to log-phase and infected with T7 phage from a frozen stock (multiplicity of infection=0.4) and incubated with shaking at 32° C. until lysis (90-150 minutes).
The Hill Slope was set to −1.

The target in the next test is endogenous MLKL in U937 (Homo sapiens (Human), UniProt Q8NB16). Description: Degradation assay: degradation of endogenous MLKL in human cells (Western blot). As to conditions: 24 h incubation, read-out: Degradation of endogenous MLKL in U937 (DC50 cell-based assay in μM). The procedure:
DEGRADATION ASSAY: Screening Compounds Procedure to Evaluate the Activity of Compounds in Degrading Endogenous MLKL in Human Cell
The human monocyte cell line (U937) was seeded on the day of the experiment in a 24-well plate at a cell density of 5*10^5 cells per well in a volume of 0.5 mL per well.
The compound was diluted in DMSO with a starting concentration of 10 mM and titrated stepwise with a dilution of 1:5. 0.5 μL of the compound dilution was added to the appropriate well to achieve a final concentration of 10; 2; 0.4; 0.08 and 0.016 μM. A DMSO only well was included as control.
The cells were incubated for 24 h in the presence of the compound at 37° C. and 10% CO2.
After the 24 h incubation period, the medium was removed and cells washed with 0.5 mL PBS. The cells were then lysed directly in 60 μL of 1×SDS gel loading buffer.
The cell lysate was heat-denatured at […] for 10 min. 10 μL of lysate per well were run on 18-well 4-15% Criterion TGX stain free gels (BIO-RAD). The proteins were then transferred onto nitrocellulose membrane with a wet transfer protocol in the Criterion Blotter (BIO-RAD).
Membranes were blocked with 5% skim milk in TBST. Primary antibody against MLKL (clone 3H1, MABC604 Merck) was used at 1:2000 dilution in TBST with 1% BSA and left shaking over night at 4° C. After washes with TBST, the membranes were incubated with goat anti-rat IgG HRP-conjugated antibody (Southern Biotech) in 1% skim milk TBST at 1:10000 dilution for 1 h at room temperature. After TBST washes the bands were imaged on the ChemiDoc MP Imaging Systm (BIO-RAD) with Immobilion Western Chemiluminescent HRP Substrate Forte (Millipore). The loading control GAPDH was probed for with rabbit anti-GAPDH (CST 14C10) at 1:2000 dilution in 1% BSA TBST over night at 4° C. TBST washes were followed by incubation with goat anti-rabbit IgG HRP-conjugated antibody (Southern Biotech) in 1% skim milk TBST at 1:10000 dilution for 1 h at room temperature followed by TBST washes. The signal was detected as described above.
The band intensity was measured in the ImageLab Software (BIO-RAD) and the MLKL values adjusted for loading with GAPDH. The percentage of degradation was calculated by normalizing the compound treated values to the DMSO only control.
On the technique in general: In western blotting, separated proteins are transferred to a membrane and probed.

Test [1] concerns U937 human histiocytic leukemia cell line. Description: Cellular assay: inhibition of TSQ induced necroptosis (CellTitre-Glo). As to conditions: U937 cells, TSQ cocktail, 48 hours, Table 38, read-out: Inhibition of TSQ-induced necroptosis (IC50 cell-based assay). The essentials:
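U937 cells (20,000/well) pre-dosed with compound (10-point, 1:3 from 36 μM, 0.3% DMSO), then TSQ (hTNF-Fc 100 ng/ml, Smac mimetic 500 nM, Q-VD-OPh 10 μM) for 48 h at 37 °C. Viability by CellTiter-Glo luminescence, normalised to DMSO (100%) and DMSO+TSQ (0%); IC50 from 4-parameter fit.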

[2] abbreviates: Homo sapiens, U-937, Table 38, read-out: Off-target effect (IC50 cell-based assay).

MLKL (full length), sequence (Q8NB16 whole entry): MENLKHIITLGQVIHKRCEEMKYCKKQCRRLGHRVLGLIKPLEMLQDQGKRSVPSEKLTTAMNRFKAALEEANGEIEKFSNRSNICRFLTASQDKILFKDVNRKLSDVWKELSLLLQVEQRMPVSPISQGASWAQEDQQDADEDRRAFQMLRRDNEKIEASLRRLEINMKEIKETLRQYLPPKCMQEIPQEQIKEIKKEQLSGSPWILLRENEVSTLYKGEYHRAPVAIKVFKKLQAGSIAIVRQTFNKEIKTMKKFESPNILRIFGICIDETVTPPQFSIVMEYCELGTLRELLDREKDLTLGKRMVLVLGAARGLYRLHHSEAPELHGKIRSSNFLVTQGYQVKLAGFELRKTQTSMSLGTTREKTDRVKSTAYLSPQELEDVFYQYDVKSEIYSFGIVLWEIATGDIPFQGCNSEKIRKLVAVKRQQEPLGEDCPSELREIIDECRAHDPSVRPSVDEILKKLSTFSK
endogenous MLKL in U937, sequence (Q8NB16 whole entry): as above

As to `CCS(=O)(=O)Nc1ccc(-c2n[nH]c(Nc3ccc(C(=O)NCCCCC(=O)N[C@@H](C(=O)N4C[C@@H](O)C[C@@H]4C(=O)NCc4ccc(-c5scnc5C)cc4)C(C)(C)C)cn3)c2C(N)=O)cc1OC(C)c1ccc(F)cc1` (stereo in doubt) [Compound 1029, 3-{4-ethanesulfonamido-3-[(1R)-1-(4-fluorophenyl)ethoxy]phenyl}-5-({5-[(4-{[(2R)-1-[(2R,4S)-4-hydroxy-2-({[4-(4-methyl-1,3-thiazol-5-yl)phenyl]methyl}carbamoyl)pyrrolidin-1-yl]-3,3-dimethyl-1-oxobutan-2-yl]carbamoyl}butyl)carbamoyl]pyridin-2-yl}amino)-1H-pyrazole-4-carboxamide], the IC50 (commonly the midpoint of a concentration-inhibition curve) in the test with U937 cells (setting [2]) is greater than 10 µM; in test [1] (Homo sapiens, U-937), less than 1 µM. In addition, the Kd (in general, the constant that tells how readily two partners part at equilibrium) at MLKL (full length) is less than 0.01 µM. Moreover, the DC50 (commonly the midpoint of the concentration-degradation curve) at endogenous MLKL in U937 lay within 1 to 10 µM.
In the case of `CCS(=O)(=O)Nc1ccc(-c2n[nH]c(Nc3ccc(C(=O)OCCCCC(=O)N[C@H](C(=O)N4CC(O)C[C@H]4C(=O)NCc4ccc(-c5scnc5C)cc4)C(C)(C)C)cn3)c2C(N)=O)cc1O[C@@H](C)c1ccc(F)cc1` (stereo in doubt) [Compound 1056, 4-{[(2S)-1-[(2S,4S)-4-hydroxy-2-({[4-(4-methyl-1,3-thiazol-5-yl)phenyl]methyl}carbamoyl)pyrrolidin-1-yl]-3,3-dimethyl-1-oxobutan-2-yl]carbamoyl}butyl 6-[(4-carbamoyl-3-{4-ethanesulfonamido-3-[(1S)-1-(4-fluorophenyl)ethoxy]phenyl}-1H-pyrazol-5-yl)amino]pyridine-3-carboxylate], the IC50 was greater than 10 µM in the test on U937 cells (Table 38, read-out: Off-target effect (IC50 cell-based assay)) and less than 1 µM in test [1]. This compound yielded a Kd on MLKL (full length) of 0.01 to 1 µM. At endogenous MLKL in U937, the DC50 is less than 1 µM.
In the case of `CCS(=O)(=O)Nc1ccc(-c2n[nH]c(Nc3ccnc(OCCOCCOCCOCCOCCNC(=O)COc4cccc5c4C(=O)N(C4CCC(=O)NC4=O)C5=O)c3)c2C(N)=O)cc1` (stereo not drawn) [Compound 1001, 5-[(2-{[14-(2-{[2-(2,6-dioxopiperidin-3-yl)-1,3-dioxo-2,3-dihydro-1H-isoindol-4-yl]oxy}acetamido)-3,6,9,12-tetraoxatetradecan-1-yl]oxy}pyridin-4-yl)amino]-3-(4-ethanesulfonamidophenyl)-1H-pyrazole-4-carboxamide], the IC50 in the test with U937 cells (setting [2]) was greater than 10 µM; in test [1] (Homo sapiens, U-937), greater than 10 µM. This compound also registered a Kd on MLKL (full length) of less than 0.01 µM. The DC50 on endogenous MLKL in U937 lay within 1 to 10 µM.
As for `CCS(=O)(=O)Nc1ccc(-c2n[nH]c(Nc3ccnc(OCCOCCOCCOCCOCCOCCNC(=O)COc4cccc5c4C(=O)N(C4CCC(=O)NC4=O)C5=O)c3)c2C(N)=O)cc1` (stereo not drawn) [Compound 1005, 5-[(2-{[17-(2-{[2-(2,6-dioxopiperidin-3-yl)-1,3-dioxo-2,3-dihydro-1H-isoindol-4-yl]oxy}acetamido)-3,6,9,12,15-pentaoxaheptadecan-1-yl]oxy}pyridin-4-yl)amino]-3-(4-ethanes-ulfonamidophenyl)-1H-pyrazole-4-carboxamide], the IC50 with U937 cells (setting [2]) is greater than 10 µM; in test [1] (Homo sapiens, U-937) it was greater than 10 µM. Moreover, the Kd on MLKL (full length) was less than 0.01 µM. Further, on endogenous MLKL in U937, the DC50 was in the range of 1 to 10 µM.
Consider `CCS(=O)(=O)Nc1ccc(-c2n[nH]c(Nc3ccnc(OCCCCC(=O)N[C@H](C(=O)N4C[C@H](O)C[C@H]4C(=O)NCc4ccc(-c5scnc5C)cc4)C(C)(C)C)c3)c2C(N)=O)cc1` [Compound 1013, 3-(4-ethanesulfonamidophenyl)-5-{[2-(4-{[(2S)-1-[(2S,4R)-4-hydroxy-2-({[4-(4-methyl-1,3-thiazol-5-yl)phenyl]methyl}carbamoyl)pyrrolidin-1-yl]-3,3-dimethyl-1-oxobutan-2-yl]carbamoyl}butoxy)pyridin-4-yl]amino}-1H-pyrazole-4-carboxamide], for which the IC50 in the test on U937 cells (setting [2]) was greater than 10 µM; in test [1] (Homo sapiens, U-937) it was 1 to 10 µM. This compound also gave a Kd at MLKL (full length) of less than 0.01 µM. Besides, on endogenous MLKL in U937, the DC50 is 1 to 10 µM.
As to `Cc1ncsc1-c1ccc(CNC(=O)[C@@H]2C[C@@H](O)CN2C(=O)[C@@H](NC(=O)CCCCOc2cc(Nc3[nH]nc(-c4ccc(NS(=O)(=O)CC(F)(F)F)cc4)c3C(N)=O)ccn2)C(C)(C)C)cc1` [Compound 1016, 5-{[2-(4-{[(2S)-1-[(2S,4R)-4-hydroxy-2-({[4-(4-methyl-1,3-thiazol-5-yl)phenyl]methyl}carbamoyl)pyrrolidin-1-yl]-3,3-dimethyl-1-oxobutan-2-yl]carbamoyl}butoxy)pyridin-4-yl]amino}-3-[4-(2,2,2-trifluoroethanesulfonamido)phenyl]-1H-pyrazole-4-carboxamide], the IC50 is greater than 10 µM in the test with U937 cells (setting [2]) and 1 to 10 µM in test [1] (Homo sapiens, U-937). For the same compound, the Kd on MLKL (full length) was less than 0.01 µM. The DC50 on endogenous MLKL in U937 was in the range of 1 to 10 µM.
As for `CCS(=O)(=O)Nc1ccc(-c2n[nH]c(Nc3ccc(OCCCCC(=O)N[C@H](C(=O)N4C[C@H](O)C[C@H]4C(=O)NCc4ccc(-c5scnc5C)cc4)C(C)(C)C)cn3)c2C(N)=O)cc1` [Compound 1019, 3-(4-ethanesulfonamidophenyl)-5-{[5-(4-{[(2S)-1-[(2S,4R)-4-hydroxy-2-({[4-(4-methyl-1,3-thiazol-5-yl)phenyl]methyl}carbamoyl)pyrrolidin-1-yl]-3,3-dimethyl-1-oxobutan-2-yl]carbamoyl}butoxy)pyridin-2-yl]amino}-1H-pyrazole-4-carboxamide], the IC50 is greater than 10 µM in the test on U937 cells (setting [2]) and less than 1 µM in test [1] (Homo sapiens, U-937). The compound also displayed a Kd on MLKL (full length) of less than 0.01 µM. The DC50 on endogenous MLKL in U937 is less than 1 µM.
`Cc1ncsc1-c1ccc(CNC(=O)[C@@H]2C[C@@H](O)CN2C(=O)[C@@H](NC(=O)CCCCOc2ccc(Nc3[nH]nc(-c4ccc(NS(=O)(=O)CC(F)(F)F)cc4)c3C(N)=O)nc2)C(C)(C)C)cc1` [Compound 1020, 5-{[5-(4-{[(2S)-1-[(2S,4R)-4-hydroxy-2-({[4-(4-methyl-1,3-thiazol-5-yl)phenyl]methyl}carbamoyl)pyrrolidin-1-yl]-3,3-dimethyl-1-oxobutan-2-yl]carbamoyl}butoxy)pyridin-2-yl]amino}-3-[4-(2,2,2-trifluoroethanesulfonamido)phenyl]-1H-pyrazole-4-carboxamide]: the IC50 in the test on U937 cells (setting [2]) is greater than 10 µM; in test [1] (Homo sapiens, U-937), less than 1 µM. For the same compound, the Kd at MLKL (full length) is less than 0.01 µM. The DC50 at endogenous MLKL in U937 is less than 1 µM.
Turning to `Cc1ncsc1-c1ccc(CNC(=O)[C@@H]2C[C@@H](O)CN2C(=O)[C@@H](NC(=O)CCCCOc2ccc(Nc3[nH]nc(-c4ccc(NS(=O)(=O)C(F)F)cc4)c3C(N)=O)nc2)C(C)(C)C)cc1` [Compound 1021, 3-[4-(difluoromethanesulfonamido)phenyl]-5-{[5-(4-{[(2S)-1-[(2S,4R)-4-hydroxy-2-({[4-(4-methyl-1,3-thiazol-5-yl)phenyl]methyl}carbamoyl)pyrrolidin-1-yl]-3,3-dimethyl-1-oxobutan-2-yl]carbamoyl}butoxy)pyridin-2-yl]amino}-1H-pyrazole-4-carboxamide], the IC50 is greater than 10 µM in the test on U937 cells (setting [2]) and less than 1 µM in test [1] (Homo sapiens, U-937). Moreover, the Kd at MLKL (full length) is less than 0.01 µM. Also, on endogenous MLKL in U937, the DC50 was 1 to 10 µM.
